Measured values published in US20260216368A1, “BIS-ESTER AND AMIDE CATIONIC LIPIDS” (SANOFI PASTEUR INC., priority 2022, published 2026).

Legend:
[1] = test system: Human erythropoietin (hEPO) levels in sera; assay: Delivery of hEPO mRNA by intramuscular administration of lipid nanoparticles; serum hEPO by ELISA; format: in vivo, Mouse; settings: for hEPO 6 Hr (ng/mL) Mean / hEPO 24 Hr (ng/mL) Mean: serum, 0.1 μg/animal hEPO mRNA LNP, n=4; for hEPO 6 Hr (ng/mL) Mean: 6 hours post dose; for in vivo hEPO protein production (FIG. 51): intramuscular delivery of hEPO mRNA using lipid nanoparticles comprising the compound, result in words; for hEPO 24 Hr (ng/mL) Mean: 24 hours post dose
Description: WO2022/099003 A1 describes an in vivo assay for intramuscular administration (e.g. on page 46, paragraph [00206]). Further details of the intramuscular experiment performed in this application are provided below.
Treatment Regimen: On Day 1, animals from Groups 1-8 were dosed via intramuscular injection while under light isoflurane anesthesia according to the study design table above. Animals in Groups 2-8 were injected with EPO in the right leg only. Group 1 animals received saline control.
Interim Sample Collections: Interim whole blood (~50 μL) was collected by tail snip or saphenous vein at 6 hours post dose administration (±5%). Blood samples were collected into serum separator tubes, allowed to clot at room temperature for at least 10 minutes, centrifuged at ambient temperature at minimum 1000 g for 10 minutes and the serum was extracted. All serum samples were stored at nominally −70° C. until analysis hEPO by the Testing Facility. The results of the EPO analysis were included in the Data Submission.
Terminal Blood Collections: Whole blood was collected via cardiac puncture into serum separator tube, allowed to clot at room temperature for at least 10 minutes, centrifuged at ambient temperature at minimum 1000 g for 10 minutes and the serum was extracted. Serum samples were stored at nominally −70° C. until analyzed for hEPO by the Test Facility.
ELISA Assay: Human erythropoietin (hEPO) levels in sera samples were determined by ELISA kit (R&D systems, Cat #DEP-00) according to the manufactory instruction and the results were included in the Data Submission. The “shaker” protocol was used. The serum samples were diluted between 1:40 and 1:100.
The ability of the further exemplary lipid nanoparticles in Example 54 to deliver hEPO mRNA by intramuscular administration was tested in accordance with the experimental protocol set out in Example 52.

[2] = RiboGreen assay, % encapsulation of mRNA in lipid nanoparticles; format: physicochemical; settings: hEPO mRNA LNP, Cationic Lipid:DMG-PEG2000:Cholesterol:DOPE=40:1.5:28.5:30, N/P ratio 4, Process A
Source text: In embodiments, the lipid nanoparticle encapsulates a nucleic acid, optionally an mRNA encoding a peptide or protein. In embodiments, the peptide is an antigen. In embodiments, the lipid nanoparticle encapsulates an mRNA encoding a peptide or protein. As used herein, the phrase “encapsulation percentage” refers to the fraction of therapeutic agent (e.g. mRNA) that is effectively encapsulated within a liposomal-based vehicle (e.g. a lipid nanoparticle) relative to the initial fraction of therapeutic agent present in the lipid phase. In embodiments, the lipid nanoparticles have an encapsulation percentage for mRNA of at least 50%. In embodiments, the lipid nanoparticles have an encapsulation percentage for mRNA of at least 55%. In embodiments, the lipid nanoparticles have an encapsulation percentage for mRNA of at least 60%. In embodiments, the lipid nanoparticles have an encapsulation percentage for mRNA of at least 65%. In embodiments, the lipid nanoparticles have an encapsulation percentage for mRNA of at least 70%. In embodiments, the lipid nanoparticles have an encapsulation percentage for mRNA of at least 75%. In embodiments, the lipid nanoparticles have an encapsulation percentage for mRNA of at least 80%. In embodiments, the lipid nanoparticles have an encapsulation percentage for mRNA of at least 85%. In embodiments, the lipid nanoparticles have an encapsulation percentage for mRNA of at least 90%. In embodiments, the lipid nanoparticles have an encapsulation percentage for mRNA of at least 95%. In embodiments, the encapsulation percentage is calculated by performing the Ribogreen assay (Invitrogen) with and without the presence of 0.1% Triton-X 100.
The RiboGreen Assay is a fluorescence-based method for the determination of mRNA concentration (Total and Free) and % encapsulation using Quant-iT™ RiboGreen® RNA reagent in mRNA containing lipid nanoparticles.
• To each of the standards (Blank, mRNA-1, mRNA-2. mRNA-3, mRNA-4, mRNA-5) and Samples (free mRNA and total mRNA), add 1.0 mL of 200-fold Ribogreen Reagent Solution and gently mix by inversion. This is a 2× Dilution. • Add 200 μL of each standard and sample in triplicate using the reverse pipetting technique in a 96-well Costar Black with Clear Background Plate. Ensure no bubbles are present in the plate before the fluorescence reading. • Read the fluorescence signal using the below instrument parameters: • Read Type: Fluorescence, Bottom Read • Excitation: 485 nm; Cut-off: 515 nm; Emission: 530 nm • Plate Type: 96-well Costar Black with Clear Background
The average fluorescence from each calibration standard is plotted against the concentration to generate a linear calibration curve using the MS Excel software. The coefficient of determination (R^2) of calibration curve must be R^2>0.99.
[formula] • Where, • Y=average fluorescence value • m: slope • x: concentration (pg/mL) • c: y-intercept • Using the linear equation, calculate the concentration of free and total mRNA concentration in the test sample by replacing the y value in the equation with the average fluorescence value of each respective sample • Once the concentration is determined, the actual concentration in the sample can be back-calculated by multiplying the concentration in the test sample with the dilution factor (DF) as follows:
[formula] • Concentration of encapsulated mRNA can be determined by subtracting the concentration of free mRNA from the total mRNA. • % Encapsulation can then be calculated by taking the ratio of encapsulated mRNA over total mRNA and multiplying the result with 100.

[3] = DLS size and polydispersity of hEPO mRNA lipid nanoparticles; format: physicochemical; settings: hEPO mRNA LNP, Cationic Lipid:DMG-PEG2000:Cholesterol:DOPE=40:1.5:28.5:30, N/P ratio 4, Process A
Description: The lipid nanoparticles in the examples of the present invention were formulated using Process A of WO 2018/089801 (see, e.g., Example 1 and FIG. 1 of WO 2018/089801). Process A (“A”) relates to a conventional method of encapsulating mRNA by mixing mRNA with a mixture of lipids, without first pre-forming the lipids into lipid nanoparticles. In an exemplary process, an ethanol lipid solution and an aqueous buffered solution of mRNA were prepared separately. A solution of mixture of lipids (cationic lipid, helper lipids, zwitterionic lipids, PEG lipids etc.) was prepared by dissolving lipids in ethanol. The mRNA solution was prepared by dissolving the mRNA in citrate buffer. Then, these two solutions were mixed using a pump system. In some instances, the two solutions were mixed using a gear pump system. In certain embodiments, the two solutions were mixing using a ‘T’ junction (or “Y” junction). The mixture was then purified by diafiltration with a TFF process. The resultant formulation concentrated and stored at 2-8° C. until further use.
(§1) Lipid nanoparticle formulations of Table 1 were prepared by Process A. More specifically, an ethanolic solution of a mixture of lipids including DMG-PEG-2000, cationic lipid, cholesterol, and phosphatidylethanolamine (DOPE) in a ratio of 1.5:40:28.5:30 were combined with an aqueous buffered solution (1 mM Citrate and 150 mM NaCl) of target mRNA at an acidic pH (4.5) under controlled conditions to yield a dispersion of uniform lipid nanoparticles (LNPs). Upon ultrafiltration and diafiltration into the final buffer, the resulting nanoparticle dispersions were diluted to required concentration using the final buffer (10% Trehalose), sterile filtered and stored frozen at −80° C. until use.
All of the lipid nanoparticle formulations comprised hEPO mRNA and the different lipids in following mol % ratios: Cationic Lipid: DMG-PEG2000; Cholesterol:DOPE=40:1.5:28.5:30.
DLS measurements were performed using a Malvern Instruments Zetasizer with a backscattering detector angle of 173° and a 4-mW, 633-nm He—Ne laser (Worcestershire, UK). The samples were analyzed by diluting in 10% Trehalose and measuring the size and Poly dispersity Index (PDI) in an optical grade polystyrene cuvette.
The following lipid nanoparticles were formulated according to Example 51.
as §1, with “Table 3” for “Table 1”

[4] = single IM injection, female BALB/cJ mice

Row | Structure (SMILES) | hEPO 6 Hr (ng/mL) Mean ([1]; third occasion, IM, mice) [ng/mL] | Encapsulation Percentage (%) ([2]; Table 3, further LNPs) | PDI ([3]; Table 3, further LNPs) | Size (nm) ([3]; Table 3, further LNPs) | hEPO 6 Hr (ng/mL) Mean ([1]; first occasion, IM, mice) [ng/mL] | in vivo hEPO protein production (FIG. 51) [1] | hEPO 6 Hr (ng/mL) Mean [1, 4] [ng/mL] | hEPO 24 Hr (ng/mL) Mean [1, 4] [ng/mL] | Encapsulation Percentage (%) ([2]; Table 1) | PDI ([3]; Table 1) | Size (nm) ([3]; Table 1)
1 | CCCCCCCCCCC(O)CN(CCCOC(=O)N[C@@H](Cc1ccccc1)C(=O)OCCCN(CC(O)CCCCCCCCCC)CC(O)CCCCCCCCCC)CC(O)CCCCCCCCCC (stereo partly drawn) [Compound XCVII, 3-(bis(2-hydroxydodecyl)amino)propyl ((3-(bis(2-hydroxydodecyl)amino)propoxy)carbonyl)-L-phenylalaninate] | 16.0 | 83 | 0.101 | 125 | – | – | – | – | – | – | –
2 | CCCCCCCCC(O)CN(CCCNC(=O)CC(C)(O)CC(=O)NCCCN(CC(O)CCCCCCCC)CC(O)CCCCCCCC)CC(O)CCCCCCCC (centres unmarked) [LXXXVIII] | – | 84 | 0.134 | 100 | 51.7 | – | – | – | – | – | –
3 | CCCCCCCCC(O)CN(CCCOC(=O)CN(C)CC(=O)OCCCN(CC(O)CCCCCCCC)CC(O)CCCCCCCC)CC(O)CCCCCCCC (centres unmarked) [XII] | – | – | – | – | – | high levels of in vivo hEPO protein production | 35.0 | 15.1 | 46 | 0.091 | 110
4 | CCCCCCCCCCC(O)CN(CCCCOC(=O)CN(C)CC(=O)OCCCCN(CC(O)CCCCCCCCCC)CC(O)CCCCCCCCCC)CC(O)CCCCCCCCCC (centres unmarked) [XIV] | – | – | – | – | – | high levels of in vivo hEPO protein production | 33.9 | 18.3 | 67 | 0.098 | 101
5 | CCCCCC/C=C\COC(=O)CCCCCC(O)CN(CCCOC(=O)CN(C)CC(=O)OCCCN(CC(O)CCCCCC(=O)OC/C=C\CCCCCC)CC(O)CCCCCC(=O)OC/C=C\CCCCCC)CC(O)CCCCCC(=O)OC/C=C\CCCCCC (centres unmarked) [XV] | – | – | – | – | – | high levels of in vivo hEPO protein production | 31.9 | 15.1 | 33 | 0.052 | 134
6 | CCCCCCCCCCC(O)CN(CCCOC(=O)CCC(C)C(=O)OCCCN(CC(O)CCCCCCCCCC)CC(O)CCCCCCCCCC)CC(O)CCCCCCCCCC (centres unmarked) [XXXII] | – | – | – | – | – | high levels of in vivo hEPO protein production | 17.0 | 10.3 | 78 | 0.124 | 106
